According to US8580762B2, “Substituted purine and 7-deazapurine compounds” (Epizyme, Inc., priority 2010, dated 2013):
Where two headings read alike, the source gives them in different places.

Legend:
HL-60 = assay: In vitro anti-proliferative assay, HL-60; format: cell-based, human; conditions: HL-60, non-MLL-rearranged; up to 14 days
Protocol: (§1) In Vitro Anti-Proliferative Assay. The potency and selectivity of the anti-proliferative activity of the compounds of the present invention were assessed using a panel of MLL-rearranged and non-MLL-rearranged human leukemia cell lines. The MLL-rearranged panel included cell lines derived from ALL, AML and biphenotypic leukemias harboring MLL-AF4, MLL-AF9 or MLL-ENL fusions. These cell lines recruit DOT1L. […] Exponentially growing cells were plated, in triplicate, in 96-well plates at a density of 3×10^4 cells/well in a final volume of 150 μl. […] Anti-proliferative activity was determined by cell viability measurements every 3-4 days for up to 14 days.

MV4-11 xenograft tumors = assay: In vivo anti-proliferative assay, mouse xenograft model of MLL-rearranged leukemia; design: species or system female nude mice; conditions: 21 days; for TGI compared to controls: non-statistically significant
Protocol: (§2) In Vivo Anti-Proliferative Assay. The in vivo anti-tumor activity of the compounds of the present invention were assessed in a mouse xenograft model of MLL-rearranged leukemia. Four groups of 20 (Groups 1, 3, 4 and 5), and one group of 8 (Group 2) female nude mice (average weight of 0.023 kg) bearing MV4-11 xenograft tumors of sizes ranging from 80-120 mm^3 were implanted subcutaneously with minipumps (Alzet Model 2001). Group 1 received vehicle only from the pump. Group 2 received vehicle only from the pump plus ip injections tid (8 hours apart) of vehicle. […] Pumps were designed to last for 7 days and were exchanged twice to give total infusion duration of 21 days exposure. […] Tumor size was measured every 4 days. After 21 days the study was terminated, and mean TGI calculated.

Jurkat = assay: In vitro anti-proliferative assay, Jurkat; format: cell-based, human; conditions: non-MLL-rearranged, up to 14 days
Protocol: as §1

[1] = Plasma levels of Compound 2 in the xenograft study; format: in vivo, female nude mice; conditions: female, nude, mouse; for concentration at 21 day: subcutaneous, read-out: average plasma level from the last sampling on day 21
Protocol: as §2, with “Four” for “In Vivo Anti-Proliferative Assay. The in vivo anti-tumor activity of the compounds of the present invention were assessed in a mouse xenograft model of MLL-rearranged leukemia. Four”

[2] = tested on: EOL-1 cells which express an MLL-PTD; assay: In vitro anti-proliferative assay, EOL-1; format: cell-based; conditions: Homo sapiens, EOL1, 336 h; EOL-1, MLL-PTD; up to 14 days
Protocol: as §1

DOT1L(1-416) = DOT1L(1-416) (Homo sapiens, UniProt Q8TEK3); assay: Determination of IC50: DOT1L(1-416) methyltransferase assay, 3H-SAM, oligonucleosome substrate, Flashplate; format: biochemical; conditions: DOT1L IC50, class symbols
In short: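 Compounds in 10-point 3-fold DMSO dilutions were tested in reactions started with substrate mix of 200 nM [3H]-SAM, 600 nM unlabeled SAM and 20 nM oligonucleosome. Reactions ran 120 min at room temperature and were quenched with 100 μM SAM. Labeled substrate was captured on streptavidin Flashplates and counted by scintillation to give IC50.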

Sequence of DOT1L(1-416) (Q8TEK3 1-416): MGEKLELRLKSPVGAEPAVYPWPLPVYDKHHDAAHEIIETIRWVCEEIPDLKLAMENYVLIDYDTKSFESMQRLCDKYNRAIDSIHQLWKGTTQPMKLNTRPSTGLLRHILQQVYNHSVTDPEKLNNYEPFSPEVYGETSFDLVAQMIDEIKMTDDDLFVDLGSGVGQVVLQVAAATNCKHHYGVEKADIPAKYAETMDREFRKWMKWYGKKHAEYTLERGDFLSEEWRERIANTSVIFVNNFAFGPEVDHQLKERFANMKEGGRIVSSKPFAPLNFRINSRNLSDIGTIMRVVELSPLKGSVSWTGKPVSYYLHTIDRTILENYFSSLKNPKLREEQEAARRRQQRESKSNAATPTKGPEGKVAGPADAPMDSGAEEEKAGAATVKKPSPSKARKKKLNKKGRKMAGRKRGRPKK

Cmax ([1]; Group 3, ip 20 mg/kg tid plus 112 mg/kg/day minipump, read-out: Cmax after each of the tid ip injections)	concentration at 21 day ([1]; Group 4, 112 mg/kg/day minipump)	concentration at 21 day ([1]; Group 5, 56 mg/kg/day minipump)	IC50 (DOT1L(1-416))	SMILES	anti-proliferative activity (HL-60)	TGI compared to controls (MV4-11 xenograft tumors; 56 mg/kg/day minipump (Group 5))	TGI compared to controls (MV4-11 xenograft tumors; 112 mg/kg/day minipump (Group 4))	TGI compared to the controls (MV4-11 xenograft tumors; Group 3: 112 mg/kg/day minipump plus ip 20 mg/kg tid, total 172 mg/kg/day, statistically significant)	anti-proliferative activity (Jurkat)	IC50 [2]
4200 to 5000 ng/mL	99 ng/mL	52 ng/mL	–	CC(C)N(C[C@H]1O[C@@H](n2cnc3c(N)ncnc32)[C@H](O)[C@@H]1O)[C@H]1C[C@@H](CCc2nc3cc(C(C)(C)C)ccc3[nH]2)C1 [Compound 2, (2R,3R,4S,5R)-2-(6-amino-9H-purin-9-yl)-5-((((1r,3S)-3-(2-(5-(tert-butyl)-1H-benzo[d]imidazol-2-yl)ethyl)cyclobutyl)(isopropyl)amino)methyl)tetrahydrofuran-3,4-diol]	no activity	43%	38%	> 70%	no activity	11 nM
–	–	–	< 100 nM	CC(C)[N+]([O-])(C[C@H]1O[C@@H](n2cnc3c(N)ncnc32)[C@H](O)[C@@H]1O)[C@H]1C[C@@H](CCc2nc3cc(C(C)(C)C)ccc3[nH]2)C1 (stereo partly drawn) [Compound 106, (1r,3S)-N-(((2R,3S,4R,5R)-5-(6-amino-9H-purin-9-yl)-3,4-dihydroxy-tetrahydrofuran-2-yl)methyl)-3-(2-(5-(tert-butyl)-1H-benzo[d]imidazol-2-yl)ethyl)-N-isopropyl-cyclobutanamine oxide]	–	–	–	–	–	–
